Laboratory results from patent US20230339835A1, “2,3,5-TRIMETHYL-6-NONYLCYCLOHEXA-2,5-DIENE-1,4-DIONE FOR SUPPRESSING AND TREATING ALPHA-SYNUCLEINOPATHIES, TAUOPATHIES, AND OTHER DISORDERS” (PTC THERAPEUTICS, INC., priority 2018, published 2023).

Columns and labels:
[1] = target: T1, recombinant human αSynuclein (Homo sapiens, UniProt P37840); assay: Cell-free αSynuclein aggregation assay (Thioflavin T); assay type: biochemical; conditions: 200 μM αSynuclein, 100 μM compound, t=24 hours, one-way ANOVA with Tukey's test
T1 construct: purchased Proteos, Inc
Method: Summary: The compound 2,3,5-trimethyl-6-nonylcyclohexa-2,5-diene-1,4-dione (“C9”), and its C8 (2,3,5-trimethyl-6-octylcyclohexa-2,5-diene-1,4-dione) and C7 (2,3,5-trimethyl-6-heptylcyclohexa-2,5-diene-1,4-dione) analogs were tested for their function as inhibitors of αSynuclein aggregation, as measured by the presence and extent of a lag phase in the kinetics of protein aggregation. Changes in the fluorescence intensity by the aggregate-binding fluorophore, Thioflavin T, were followed to report on the protein aggregation as a function of time.
Experimental Methods: Cell-free αSynuclein aggregation assays were set up with 200 μM of recombinant human αSynuclein (Proteos, Inc.) in the presence of 100 μM of compound (from 10 mM stock solutions in DMSO) or in 1% (v/v) DMSO as vehicle. All solutions were prepared in Dulbecco's phosphate-buffered saline (DPBS) buffer (pH 7.4) with 0.03% (v/v) NaN3 and 5 μM Thioflavin T (ThT), prepared as a master mix before addition of the protein or compounds. A protein master mix was then prepared and separated into 4 tubes (1 per condition). […]
Protein solution+/−compound and background samples were then loaded into wells of an optically transparent 96-well plate with black walls (Corning Costar), which was sealed with a LightCycler® 480 seal (Roche Life Science), incubated at 37° C. for 15 minutes to equilibrate, after which the data collection was started. A Tecan M1000 spectrometer was used to collect data points on ThT fluorescence (ex/em 450/490 nm) every 30 minutes. The plate was agitated by shaking in between fluorescence reads.
Data Analysis and Results: Fluorescence intensity data were collected on all the samples over time. The endpoint fluorescence intensity unit (FIU) value of the mean of vehicle-treated αSyn samples was set to 100%, and all other FIU values were normalized relative to it (see FIG. 1A). The end results were plotted as normalized ThT fluorescence (%) with respect to time.
Normalized ThT fluorescence values (% FIU) at t=24 hours were used to compare samples (see FIG. 1B). […]

[2] = target: T2, pre-formed fibrils (PFFs) of human wild-type Tau K18 fragment (Homo sapiens, UniProt P10636); assay: Cell-free Tau K18 WT pre-formed fibril disaggregation assay (Thioflavin T); assay type: biochemical; conditions: 10 μM Tau PFFs, 30 μM compound, 94 hr, vs vehicle (Dunnett's test)
T2 construct: human recombinant Tau K18 WT fragment were generated by incubating the Tau K18 monomer (Bio-Techne®); purchased Bio-Techne
T2 sequence (P10636 561-685 limits assumed): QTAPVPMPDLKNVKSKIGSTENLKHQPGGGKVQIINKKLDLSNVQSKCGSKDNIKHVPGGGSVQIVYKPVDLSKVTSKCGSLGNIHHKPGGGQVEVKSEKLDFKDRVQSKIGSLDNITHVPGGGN
Method: Summary: Compounds 2,3,5-trimethyl-6-nonylcyclohexa-2,5-diene-1,4-dione (C9), 2,3,5-trimethyl-6-octylcyclohexa-2,5-diene-1,4-dione (C8), and 2,3,5-trimethyl-6-heptylcyclohexa-2,5-diene-1,4-dione (C7) were tested for their ability to disaggregate pre-formed fibrils (PFFs) of human wild-type Tau K18 fragment, as measured by the decrease in fluorescence intensity of the aggregate-binding fluorophore, Thioflavin T, over time.
Experimental Methods: Pre-formed fibrils (PFFs) of the human recombinant Tau K18 WT fragment were generated by incubating the Tau K18 monomer (Bio-Techne®) with sodium heparin in a 1:1 ratio in presence of excess (50×) tris(2-carboxyethyl)phosphine (TCEP) as the reducing agent in Dulbecco's phosphate-buffered saline (DPBS) buffer (pH 7.4). The mixture was incubated for 4 days at 37° C. without agitation to yield PFFs in 100 μM final concentration.
Cell-free Tau disaggregation assays were set up with 10 μM of Tau PFFs in the presence of 30 μM of compound (from 10 mM stocks in DMSO) or in 0.3% (v/v) DMSO as vehicle. All solutions were prepared in DPBS buffer (pH 7.4) with 0.03% (v/v) NaN3 and 5 μM Thioflavin T (ThT), prepared as a master mix before addition of the protein or compounds. A protein master mix was first prepared the day before the assay to pre-equilibrate the Tau PFFs at 10 μM at ambient temperature and atmosphere. The next day, the pre-mixed protein solution was separated into 4 tubes (1 per condition). […]
Tau PFFs solution+/−compound and background samples were then loaded into wells of an optically transparent 96-well plate with black walls, which was sealed with a LightCycler® 480 seal (Roche Life Science), incubated at 37° C. for 15 minutes to equilibrate and the data collection was initiated. A Tecan M1000 spectrometer was used to collect data points on ThT fluorescence (ex/em 450/490 nm) every 30 minutes without agitation.
Data Analysis and Results: The maximum fluorescence intensity unit (FIU) value of the vehicle-treated Tau samples was set to 100%, to which all other FIU values were normalized relatively. […]

[3] = Light sensitivity of C9 solutions; assay type: physicochemical; conditions: room light wavelengths <450 nm
Text: The compounds of this invention can be prepared from readily available starting materials using general methods and procedures that will be apparent to one skilled in the art in view of the disclosure provided herein. It will be appreciated that where typical or preferred process conditions (i.e., reaction temperatures, times, mole ratios of reactants, solvents, pressures, etc.) are given, other process conditions can also be used unless otherwise stated. Optimum reaction conditions may vary with the particular reactants or solvent used, but such conditions can be determined by one skilled in the art by routine optimization procedures. […] If amber lighting is not available, then appropriate controls should be used to minimize solutions to light exposure e.g. aluminum foil wrapping, amber glassware
Test solutions on 1 g scale determined that 75-85% IPA/water gave good solubility (˜10:1 vol:wt), fine crystals that were filterable and solutions that could be heated and cooled to produce a predictable melt/crystallization. […] A hot filtration was required as a brown, material formed during crystallization when the solution was left exposed to room light for >1 h. This was only observed with the solution was exposed to light. Recovery was 92.7% of fine needles and UHPLC analysis of the supernatant was 91% a/a vs 99% for the solid indicating the supernatant was removing impurities. […]

| inhibition of αSynuclein aggregation (normalized ThT fluorescence vs vehicle) [1] | reduction in Tau fibril content [2] | light sensitivity of solutions [3] | Compound |
| --- | --- | --- | --- |
| not statistically significant | did not have a significant reduction | – | CCCCCCCCC1=C(C)C(=O)C(C)=C(C)C1=O [Compound C8, 2,3,5-trimethyl-6-octylcyclohexa-2,5-diene-1,4-dione, reference compound] |
| significant inhibition effect | significant reduction | light sensitive | CCCCCCCCCC1=C(C)C(=O)C(C)=C(C)C1=O [Compound C9, 2,3,5-trimethyl-6-nonylcyclohexa-2,5-diene-1,4-dione] |
